In publication PMC7997579, “Synthetic Lethality in Pancreatic Cancer: Discovery of a New RAD51-BRCA2 Small Molecule Disruptor That Inhibits Homologous Recombination and Synergizes with Olaparib” (Journal of Medicinal Chemistry, 2020):

What follows are molecules tested against T1, BRC4–RAD51 interaction (Homo sapiens, UniProt Q06609) (assay: Competitive biochemical ELISA assay (biotinylated BRC4 peptide vs RAD51)). Details: competition with BRC4 for RAD51; triplicate, ± standard deviation; NA = not active; racemic mixtures unless enantiomer named.
T1 construct: purchased Creative Biomart (RAD51); Life Technologies (BRC4 peptide)
T1 sequence (Q06609 1-339): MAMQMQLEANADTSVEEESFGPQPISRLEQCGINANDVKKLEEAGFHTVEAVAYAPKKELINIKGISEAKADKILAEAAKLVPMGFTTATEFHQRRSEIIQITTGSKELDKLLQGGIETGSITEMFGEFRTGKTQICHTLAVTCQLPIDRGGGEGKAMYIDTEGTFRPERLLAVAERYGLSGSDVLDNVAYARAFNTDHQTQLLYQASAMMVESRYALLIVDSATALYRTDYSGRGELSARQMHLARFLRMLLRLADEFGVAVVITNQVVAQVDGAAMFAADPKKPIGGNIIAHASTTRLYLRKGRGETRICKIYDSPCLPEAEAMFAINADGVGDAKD
Assay type: binding
Procedure: To investigate the mechanism of action of the new dihydroquinolone pyrazoline derivatives, different biological assays were performed. As a primary screening, the ability of compounds 5d–57d to inhibit RAD51-BRCA2 interaction was investigated with a competitive biochemical ELISA assay against the parent compound 4d (Table 1). This assay is effective in evaluating the ability of new molecules to compete with BRC4 to bind to RAD51.[30] […] 18d–21d, 23d, 25d, 30d, and 31d were active at micromolar range, all very similar to the initial hit. […] The replacement of the aromatic ring A in combination with the substitution of the pyrazoline nitrogen with either propionyl or acetyl chain yielded compounds 33d–51d. […] As expected for PPI disruptors, the SARs of the new series of dihydroquinolone pyrazoline were rather complex to rationalize, with many cliffs and spikes that were difficult to understand. […] Accordingly, 4d, 12d, 18d, 20d–23d, 30d, 31d, 33d–36d, 39d, 45d, and 49d were submitted to cell-based study (Table 2).
Competitive ELISA screening assay using biotinylated BRC4 peptide to disrupt the BRC4–RAD51 interaction was performed by modifying the method described by Rajendra et al.[33] BRC4-biotinylated peptide (N-term biotin-[…] from Life Technologies) was used to coat 384-well plates (Nunc). After washing with PBS containing 0.05% Tween-20 (PBST) and blocking with the solution BSA 1% /PBST, overnight hybridization with human RAD51 protein (NP_002866 Creative Biomart, NY) was performed. Test compounds were added in dose response from 0.01 to 100 μM in triplicate with constant DMSO 1%. Antibody raised against RAD51 (Millipore) and HRP-secondary antibody staining to develop the 3,3′,5,5′-tetramethylbenzidine signal (Sigma) quenched with 1 M HCl was used as the assay readout. Colorimetric measure was read on a Victor5 (PerkinElmer) plate reader. BRC4 and Rad51 were included in the assay as positive control. Results were analyzed by using GraphPad software.

| Compound | EC50 (μM) on ELISA assay |
| --- | --- |
| CCn1ncc2cc(C3CC(c4c(-c5ccccc5)c5cc(Cl)ccc5[nH]c4=O)=NN3C(=O)CCC(=O)O)ccc21 (stereo not drawn) [Compound 24d, 4-(3-(6-Chloro-2-oxo-4-phenyl-1,2-dihydroquinolin-3-yl)-5-(1-ethyl-1H-indazol-5-yl)-4,5-dihydro-1H-pyrazol-1-yl)-4-oxobutanoic Acid] | inactive |
| CCn1cc2cc(C3CC(c4c(-c5ccccc5)c5cc(Cl)ccc5[nH]c4=O)=NN3C(C)=O)ccc2n1 (stereo not drawn) [Compound 48d, 3-(1-Acetyl-5-(2-ethyl-2H-indazol-5-yl)-4,5-dihydro-1H-pyrazol-3-yl)-6-chloro-4-phenylquinolin-2(1H)-one] | inactive |
| CCCn1cc2cc(C3CC(c4c(-c5ccccc5)c5cc(Cl)ccc5[nH]c4=O)=NN3C(C)=O)ccc2n1 (stereo not drawn) [Compound 50d, 3-(1-Acetyl-5-(2-propyl-2H-indazol-5-yl)-4,5-dihydro-1H-pyrazol-3-yl)-6-chloro-4-phenylquinolin-2(1H)-one] | inactive |
| COc1ccc(C2CC(c3c(-c4ccccc4)c4cc(Cl)ccc4[nH]c3=O)=NN2C(C)=O)cc1 (stereo not drawn) [Compound 38d, 3-(1-Acetyl-5-(4-methoxyphenyl)-4,5-dihydro-1H-pyrazol-3-yl)-6-chloro-4-phenylquinolin-2(1H)-one] | inactive |

Same assay, conditions: competition with BRC4 for RAD51; triplicate, ± standard deviation; NA = not active; racemic mixtures unless enantiomer named; read-out: EC50 (μM) on ELISA assay

| Compound | EC50 [µM] |
| --- | --- |
| CC(=O)N1N=C(c2c(-c3ccccc3)c3cc(Cl)ccc3[nH]c2=O)CC1c1ccc(F)cc1 (stereo not drawn) [Compound 5d, 3-(1-Acetyl-5-(4-fluorophenyl)-4,5-dihydro-1H-pyrazol-3-yl)-6-chloro-4-phenylquinolin-2(1H)-one] | 50 ± 10 |
| COc1ccc(-c2ccc(C3CC(c4c(-c5ccccc5)c5cc(Cl)ccc5[nH]c4=O)=NN3C(C)=O)cc2)cc1 (stereo not drawn) [Compound 44d, 3-(1-Acetyl-5-(4′-methoxy-[1,1′-biphenyl]-4-yl)-4,5-dihydro-1H-pyrazol-3-yl)-6-chloro-4-phenylquinolin-2(1H)-one] | 70 ± 6 |
| O=C(O)CCC(=O)N1N=C(c2c(-c3ccccc3)c3cc(Cl)ccc3[nH]c2=O)CC1c1ccc(C(F)(F)F)cc1 (stereo not drawn) [Compound 16d, 4-(3-(6-Chloro-2-oxo-4-phenyl-1,2-dihydroquinolin-3-yl)-5-(4-(trifluoromethyl)phenyl)-4,5-dihydro-1H-pyrazol-1-yl)-4-oxobutanoic Acid] | 29 ± 2 |
| O=C(O)CCC(=O)N1N=C(c2c(-c3ccccc3)c3cc(Cl)ccc3[nH]c2=O)CC1c1ccc(Cl)cc1 (stereo not drawn) [Compound 11d, 4-(3-(6-Chloro-2-oxo-4-phenyl-1,2-dihydroquinolin-3-yl)-5-(4-chlorophenyl)-4,5-dihydro-1H-pyrazol-1-yl)-4-oxobutanoic Acid] | 59 ± 8 |
| CCn1cc2cc(C3CC(c4c(-c5ccccc5)c5cc(Cl)ccc5[nH]c4=O)=NN3C(=O)CCC(=O)O)ccc2n1 (stereo not drawn) [Compound 25d, 4-(3-(6-Chloro-2-oxo-4-phenyl-1,2-dihydroquinolin-3-yl)-5-(2-ethyl-2H-indazol-5-yl)-4,5-dihydro-1H-pyrazol-1-yl)-4-oxobutanoic Acid] | 28 ± 4 |
| CC(=O)N1N=C(c2c(-c3ccccc3)c3cc(Cl)ccc3[nH]c2=O)CC1c1ccc(Br)cc1 (stereo not drawn) [Compound 37d, 3-(1-Acetyl-5-(4-bromophenyl)-4,5-dihydro-1H-pyrazol-3-yl)-6-chloro-4-phenylquinolin-2(1H)-one] | 38 ± 7 |
| CC(=O)N1N=C(c2c(-c3ccccc3)c3cc(Cl)ccc3[nH]c2=O)CC1c1ccc(-c2ccc(Cl)cc2)cc1 (stereo not drawn) [Compound 42d, 3-(1-Acetyl-5-(4′-chloro-[1,1′-biphenyl]-4-yl)-4,5-dihydro-1H-pyrazol-3-yl)-6-chloro-4-phenylquinolin-2(1H)-one] | 45 ± 8 |
| CCn1ncc2cc(C3CC(c4c(-c5ccccc5)c5cc(Cl)ccc5[nH]c4=O)=NN3C(C)=O)ccc21 (stereo not drawn) [Compound 47d, 3-(1-Acetyl-5-(1-ethyl-1H-indazol-5-yl)-4,5-dihydro-1H-pyrazol-3-yl)-6-chloro-4-phenylquinolin-2(1H)-one] | 40 ± 3 |
| CCC(=O)N1N=C(c2c(-c3ccccc3)c3cc(Cl)ccc3[nH]c2=O)CC1c1ccc(F)cc1 (stereo not drawn) [Compound 6d, 6-Chloro-3-(5-(4-fluorophenyl)-1-propionyl-4,5-dihydro-1H-pyrazol-3-yl)-4-phenylquinolin-2(1H)-one] | 34 ± 3 |
| CCCn1cc(-c2ccc(C3CC(c4c(-c5ccccc5)c5cc(Cl)ccc5[nH]c4=O)=NN3C(C)=O)cc2)cn1 (stereo not drawn) [Compound 51d, 3-(1-Acetyl-5-(4-(1-propyl-1H-pyrazol-4-yl)phenyl)-4,5-dihydro-1H-pyrazol-3-yl)-6-chloro-4-phenylquinolin-2(1H)-one] | 46 ± 9 |
| CCCn1cc(-c2ccc(C3CC(c4c(-c5ccccc5)c5cc(Cl)ccc5[nH]c4=O)=NN3C(=O)CCC(=O)O)cc2)cn1 (stereo not drawn) [Compound 32d, 4-(3-(6-Chloro-2-oxo-4-phenyl-1,2-dihydroquinolin-3-yl)-5-(4-(1-propyl-1H-pyrazol-4-yl)phenyl)-4,5-dihydro-1H-pyrazol-1-yl)-4-oxobutanoic Acid] | 65 ± 5 |
| CC(=O)N1N=C(c2c(-c3ccccc3)c3cc(Cl)ccc3[nH]c2=O)CC1c1ccc(-c2ccc(Br)cc2)cc1 (stereo not drawn) [Compound 43d, 3-(1-Acetyl-5-(4′-bromo-[1,1′-biphenyl]-4-yl)-4,5-dihydro-1H-pyrazol-3-yl)-6-chloro-4-phenylquinolin-2(1H)-one] | 70 ± 15 |
| O=C(O)CCC(=O)N1N=C(c2c(-c3ccccc3)c3cc(Cl)ccc3[nH]c2=O)CC1c1ccc(-c2ccc(Cl)cc2)cc1 (stereo not drawn) [Compound 19d, 4-(3-(6-Chloro-2-oxo-4-phenyl-1,2-dihydroquinolin-3-yl)-5-(4′-chloro-[1,1′-biphenyl]-4-yl)-4,5-dihydro-1H-pyrazol-1-yl)-4-oxobutanoic Acid] | 25 ± 5 |
| CCn1ccc2cc(C3CC(c4c(-c5ccccc5)c5cc(Cl)ccc5[nH]c4=O)=NN3C(C)=O)ccc21 (stereo not drawn) [Compound 46d, 3-(1-Acetyl-5-(1-ethyl-1H-indol-5-yl)-4,5-dihydro-1H-pyrazol-3-yl)-6-chloro-4-phenylquinolin-2(1H)-one] | 50 ± 15 |
